In ChEMBL document CHEMBL1127000, “Synthesis and excitatory amino acid pharmacology of some novel quinoxalinediones” (Bioorg Med Chem Lett, 1993) one finds Ki and Displacement data, which are given here for twelve compounds.

Structures are written as SMILES.

Test [1] has as its target Glutamate receptor ionotropic, NMDA 1 (Rattus norvegicus, UniProt P35439). Nature of the test: Binding affinity for glycine site-NMDA receptor was determined by the ability to displace [3H]glycine in rat cortical membranes. The class given is cell membranes.
The target in test [2] is Glutamate receptor ionotropic, AMPA (Rattus norvegicus, UniProt P19490+P19491+P19492+P19493).
Test [3] concerns the target Glutamate receptor ionotropic, AMPA (Rattus norvegicus) (UniProt P19491+P19492+P19493+P19490). Nature of the test: Binding affinity for Ionotropic glutamate receptor AMPA was determined by the ability to displace [3H]AMPA in rat cortical membranes at 10 uM. The class given is cell membranes.
Test [4] deals with Glutamate receptor ionotropic, NMDA 1 (Rattus norvegicus) (UniProt P35439). Nature of the test: Tested for the ability to displace [3H]glycine in rat cortical membranes at a concentration of 10 uM. It counts as cell membranes.
Test [5] shares this target. Nature of the test: Binding affinity for glycine site-NMDA receptor was determined by the ability to displace [3H]glycine in rat cortical membranes at 10 uM. The class given is cell membranes.

In the case of `Cc1cc2[nH]c(=O)c(=O)n(CP(=O)(O)O)c2cc1C`, the figures for the Ki in test [1] and in test [2] were 5.28 µM and 1.21 µM, respectively.

As to `COC(=O)Cn1c(=O)cnc2cc(C)c(C)cc21`, the results for the Displacement in test [3] and in test [4] were 4.6% and 8%, respectively.

Regarding `Cc1cc2[nH]c(=O)c(=O)n(CC(=O)O)c2cc1C`, the Ki in test [1] was 13.8 µM; in test [2], 0.7 µM.

`Cc1cc2[nH]c(=O)c(=O)n(Cc3nn[nH]n3)c2cc1C`: the results for the Displacement in test [3] and in test [5] were 52.4% and 49.6%, respectively.

For `Cc1cc2[nH]c(=O)c(=O)n(C(C)C(=O)O)c2cc1C` (centres undefined), the Displacement in test [3] came to 13.9%; in test [5], 2.6%.

As to `Cc1ccc(S(=O)(=O)NC(=O)Cn2c(=O)c(=O)[nH]c3cc(C)c(C)cc32)cc1`, the Displacement in test [3] stood at 28%; in test [5], 48%.

In the case of `Cc1cc2[nH]c(=O)c(=O)n(CCCC(=O)O)c2cc1C`, in test [5], the Displacement is 29.6%. In test [2], this compound gave a Ki of 8 µM.

Turning to `O=c1[nH]c2cc(Cl)c(Cl)cc2n(Cc2nn[nH]n2)c1=O`, the Displacement in test [3] was found to be 58.6%; in test [5], 58.8%.

Regarding `O=C(O)Cn1c(=O)c(=O)[nH]c2cc(Cl)c(Cl)cc21`, the Ki in test [1] was 0.11 µM; in test [2], 2.1 µM.

Regarding `Cc1cc2[nH]c(=O)c(=O)n(CC(=O)Nc3ccccc3)c2cc1C`, the values for the Displacement in test [3] and in test [4] were 5.2% and 2.9%, respectively.

On to `Cc1cc2[nH]c(=O)c(=O)n(CC(=O)NS(C)(=O)=O)c2cc1C`, for which the Displacement in test [3] is 49%; in test [5] it was 36%.

For `Cc1cc2[nH]c(=O)c(=O)n(CCC(=O)O)c2cc1C`, the Displacement in test [3] worked out at 28.5%; in test [5], 58.2%.

Broadly, the Ki is the equilibrium dissociation constant of an inhibitor or competing ligand from its target. A lower Ki goes with higher affinity.
